Article PMC4939156, “Study of a mechanism responsible for potential antidepressant activity of EMD 386088, a 5-HT6 partial agonist in rats” (Naunyn-Schmiedeberg's Archives of Pharmacology, 2016)
Where a name gives a salt, the structure may show the parent alone.

Target: T1, dopamine transporter (DAT) (Homo sapiens, UniProt Q01959)
T1 construct: gene SLC6A3; human recombinant, CHO cells
Test: Cerep DAT affinity assay, human recombinant CHO cells (called radioligand in the Discussion, functional in Methods)
Format: binding

T1 sequence (Q01959 whole entry): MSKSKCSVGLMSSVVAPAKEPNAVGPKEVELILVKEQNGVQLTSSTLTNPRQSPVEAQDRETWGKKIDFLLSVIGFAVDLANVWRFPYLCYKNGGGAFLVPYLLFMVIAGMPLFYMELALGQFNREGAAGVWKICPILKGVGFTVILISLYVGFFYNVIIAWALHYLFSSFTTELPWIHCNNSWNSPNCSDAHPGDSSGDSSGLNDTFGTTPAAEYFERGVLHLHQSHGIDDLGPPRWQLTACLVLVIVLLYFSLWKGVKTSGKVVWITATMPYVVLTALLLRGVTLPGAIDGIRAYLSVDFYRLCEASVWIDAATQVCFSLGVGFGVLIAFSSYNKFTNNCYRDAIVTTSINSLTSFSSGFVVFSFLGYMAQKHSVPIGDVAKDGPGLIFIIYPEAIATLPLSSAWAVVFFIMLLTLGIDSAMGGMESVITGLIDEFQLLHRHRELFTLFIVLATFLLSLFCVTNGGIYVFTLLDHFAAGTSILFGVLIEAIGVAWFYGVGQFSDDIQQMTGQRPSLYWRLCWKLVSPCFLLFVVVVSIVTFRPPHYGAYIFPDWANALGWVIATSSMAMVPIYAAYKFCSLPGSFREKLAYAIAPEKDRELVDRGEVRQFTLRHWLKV

## Cc1[nH]c2ccc(Cl)cc2c1C1=CCNCC1 [EMD 386088, 5-chloro-2-methyl-3-(1,2,3,6-tetrahydro-4-pyridinyl)-1H-indole hydrochloride]
  Ki: 41 nM
